These results are taken from patent US20140051722A1, “TOPICAL LFA-1 ANTAGONISTS FOR USE IN LOCALIZED TREATMENT OF IMMUNE RELATED DISORDERS” (SARCODE BIOSCIENCE INC., priority 2008, published 2014).

A value given as a limit tells only on which side of the number the result lay.

For experiment [1], the system named is Plaque Psoriasis (PASI score). As to conditions: >90% occupancy of LFA-1; cited from earlier work.
The test system of the next experiment is GM-CSF. Put plainly: SEB-stimulated cytokine release from human PBMC: GM-CSF. The experiment is classed as cell-based. The following applies: SEB 1 ng/ml.
The subject of a further experiment is MCP-1. Nature of the experiment: SEB-stimulated cytokine release from human PBMC: MCP-1. In kind it is cell-based. The following applies: SEB 1 ng/ml.
The next experiment relates to IP-10. Put plainly: SEB-stimulated cytokine release from human PBMC: IP-10. In kind it is cell-based. As to conditions: SEB 1 ng/ml.
In a further experiment the test system is IL-6. Nature of the experiment: SEB-stimulated cytokine release from human PBMC: IL-6. The experiment is classed as cell-based. The following applies: SEB 1 ng/ml.
The next experiment relates to IL-1β. Put plainly: SEB-stimulated cytokine release from human PBMC: IL-1β. The experiment is classed as cell-based. The following applies: SEB 1 ng/ml.
The next experiment deals with IL-10. Nature of the experiment: SEB-stimulated cytokine release from human PBMC: IL-10. In kind it is cell-based. As to conditions: SEB 1 ng/ml.
In a further experiment the test system is IL-13. Nature of the experiment: SEB-stimulated cytokine release from human PBMC: IL-13. In kind it is cell-based. The following applies: SEB 1 ng/ml.
The next experiment deals with IL-12p40. Nature of the experiment: SEB-stimulated cytokine release from human PBMC: IL-12p40. In kind it is cell-based. As to conditions: SEB 1 ng/ml.
For the next experiment, the system named is IL-5. Nature of the experiment: SEB-stimulated cytokine release from human PBMC: IL-5. As to conditions: SEB 1 ng/ml. The experiment is classed as cell-based.
Another experiment concerns IL-4. Nature of the experiment: SEB-stimulated cytokine release from human PBMC: IL-4. In kind it is cell-based. As to conditions: SEB 1 ng/ml.
The next experiment concerns IL-1α. Put plainly: SEB-stimulated cytokine release from human PBMC: IL-1α. As to conditions: SEB 1 ng/ml. In kind it is cell-based.
The next experiment deals with IL-3. Put plainly: SEB-stimulated cytokine release from human PBMC: IL-3. The following applies: SEB 1 ng/ml. In kind it is cell-based.

Turning to “efalizumab: anti-LFA-1 monoclonal antibody, clinical trial in plaque psoriasis”, the “clinical improvement in PASI score” value in experiment [1] is listed as “greater than 50%”.

Usually EC50 stands for the concentration that produces a half-maximal response. The low end stands for higher potency in that assay, the high end for lower potency in that assay. Turning to `O=C(NC(Cc1cc(=O)[nH]c2ccccc12)C(=O)O)c1ccc(Cl)cc1` (stereo not shown) [Rebamipide], the concentration for a half-maximal effect (EC50) in the experiment on GM-CSF, with MCP-1, in the experiment with IP-10, in the experiment with IL-6, with IL-1β and in the experiment on IL-10 was over 1000 µM in each case. Further, the EC50 in the experiment on IL-13, in the experiment with IL-12p40, with IL-5, with IL-4, in the experiment on IL-1α and in the experiment with IL-3 was over 1000 µM throughout.
